Measured values as given in paper PMC12615753, “Glutathione as a taste modulator: molecular mechanisms of interaction with umami and sweet taste receptors” (Food Chemistry: Molecular Sciences, 2025).

Assays:
hTAS1R2/rTAS1R3(Mut1) = target: T1, hTAS1R2/rTAS1R3(Mut1) (UniProt Q8TE23+Q923K1, A277V/L68N/R278H/S168G/S302A); assay: Calcium assay, mutated rTAS1R3 co-expressed with hTAS1R2; format: cell-based, human, rat
T1 construct: The cDNA coding region of rTAS1R3 was synthesized with optimized-codon usage for human expression; expressed in transfected cells
T1 sequence (Q923K1 21-858 L68N/S168G/A277V/R278H/S302A, one chain of several): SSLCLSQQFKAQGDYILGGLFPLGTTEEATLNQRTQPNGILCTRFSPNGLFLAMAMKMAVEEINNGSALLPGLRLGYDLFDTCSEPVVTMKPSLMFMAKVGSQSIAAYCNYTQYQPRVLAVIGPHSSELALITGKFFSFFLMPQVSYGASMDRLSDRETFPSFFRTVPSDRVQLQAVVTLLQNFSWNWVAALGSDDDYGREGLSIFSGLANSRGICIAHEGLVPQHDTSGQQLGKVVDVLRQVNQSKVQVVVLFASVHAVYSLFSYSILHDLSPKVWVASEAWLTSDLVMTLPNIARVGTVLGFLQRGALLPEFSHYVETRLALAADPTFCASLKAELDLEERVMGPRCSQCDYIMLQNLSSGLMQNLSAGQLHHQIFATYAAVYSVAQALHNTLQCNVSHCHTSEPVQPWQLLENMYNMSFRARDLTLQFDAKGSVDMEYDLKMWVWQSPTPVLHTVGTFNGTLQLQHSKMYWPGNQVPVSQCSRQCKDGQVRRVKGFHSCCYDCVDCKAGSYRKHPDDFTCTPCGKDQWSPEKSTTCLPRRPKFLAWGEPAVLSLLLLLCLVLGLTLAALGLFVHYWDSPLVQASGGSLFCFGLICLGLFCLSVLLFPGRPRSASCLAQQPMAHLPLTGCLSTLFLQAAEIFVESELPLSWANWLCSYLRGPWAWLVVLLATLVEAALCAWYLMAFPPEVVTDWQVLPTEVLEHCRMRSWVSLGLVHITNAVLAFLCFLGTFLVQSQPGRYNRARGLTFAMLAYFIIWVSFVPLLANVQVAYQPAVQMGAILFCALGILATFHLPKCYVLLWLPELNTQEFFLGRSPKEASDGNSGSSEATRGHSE
Experimental: HEK293T/17 cells (ATCC CRL-11268) were seeded into clear bottom black 96-well plates coated with poly-D-lysine at a density of 32500 cells/well in 100 μL of DMEM containing 4.5 g/L glucose and supplemented with penicillin/streptomycin, 2 mM GlutaMAX and 10 % dialyzed fetal bovine serum. The plates were incubated for 24 h at 37 °C and 7.3 % CO2 in a humidified atmosphere. After incubation, using Fugene® 4 K (0.46 μL/well, Promega, Illkirch, France), the cells were transiently transfected with pcDNA3-hTAS1R1-WT (60 ng/well) or TAS1R1 mutants, pcDNA4-rTAS1R3 (60 ng/well), pcDNA3-Gα15i2 (10 ng/well), and pGP-CMV-GCaMP6s (Addgene #40753; 10 ng/well) as a genetically encoded calcium indicator. […] After 20 s of basal fluorescence calcium measurement, the cells were stimulated via automatic injection of a range of compounds in eight wells, and the signal emission was recorded for an additional 70 s, via a FlexStation 3® fluorometric microplate reader (Molecular Devices, San Jose, CA, USA). […] The emitted fluorescence was measured at a wavelength of 510 nm after excitation at 488 nm. […] For each well, the decrease in the raw fluorescence as the relative fluorescence changed was calculated as ΔF/F0. Replicates were averaged for the wells subjected to the same stimuli, the background signal was subtracted, and the fluorescence changes in mock-transfected cells were subtracted. […]

hTAS1R2/hTAS1R3 = target: T2, hTAS1R2/hTAS1R3 (Homo sapiens, UniProt Q7RTX0+Q8TE23); assay: Calcium assay in transfected HEK293T/17 cells, sweet taste receptor; format: cell-based; details: for EC50: agonist alone, Fig. 2
T2 construct: expressed in transfected cells
T2 sequence (Q8TE23 20-839): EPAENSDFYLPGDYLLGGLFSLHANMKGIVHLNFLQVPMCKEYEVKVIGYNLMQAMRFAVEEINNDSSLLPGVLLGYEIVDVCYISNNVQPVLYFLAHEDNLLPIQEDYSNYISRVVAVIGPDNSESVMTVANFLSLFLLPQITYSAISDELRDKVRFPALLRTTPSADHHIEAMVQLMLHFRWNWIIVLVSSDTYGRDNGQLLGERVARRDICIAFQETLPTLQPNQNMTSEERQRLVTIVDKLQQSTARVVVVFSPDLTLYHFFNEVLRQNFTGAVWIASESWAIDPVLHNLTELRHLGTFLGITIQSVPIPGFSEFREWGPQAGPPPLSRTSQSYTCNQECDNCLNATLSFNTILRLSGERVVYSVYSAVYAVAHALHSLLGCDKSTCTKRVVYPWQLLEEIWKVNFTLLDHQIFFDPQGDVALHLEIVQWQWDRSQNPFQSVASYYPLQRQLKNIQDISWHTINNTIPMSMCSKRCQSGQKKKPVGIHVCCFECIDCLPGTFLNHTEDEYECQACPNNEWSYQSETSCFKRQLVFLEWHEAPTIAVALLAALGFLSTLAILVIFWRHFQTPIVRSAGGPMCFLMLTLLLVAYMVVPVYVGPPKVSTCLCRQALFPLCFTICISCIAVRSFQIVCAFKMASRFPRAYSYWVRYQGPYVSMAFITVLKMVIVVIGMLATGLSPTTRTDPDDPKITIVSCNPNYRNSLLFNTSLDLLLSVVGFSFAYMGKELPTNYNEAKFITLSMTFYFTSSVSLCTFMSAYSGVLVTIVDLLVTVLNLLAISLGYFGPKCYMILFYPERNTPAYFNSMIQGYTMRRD
T2 sequence (Q7RTX0 21-852): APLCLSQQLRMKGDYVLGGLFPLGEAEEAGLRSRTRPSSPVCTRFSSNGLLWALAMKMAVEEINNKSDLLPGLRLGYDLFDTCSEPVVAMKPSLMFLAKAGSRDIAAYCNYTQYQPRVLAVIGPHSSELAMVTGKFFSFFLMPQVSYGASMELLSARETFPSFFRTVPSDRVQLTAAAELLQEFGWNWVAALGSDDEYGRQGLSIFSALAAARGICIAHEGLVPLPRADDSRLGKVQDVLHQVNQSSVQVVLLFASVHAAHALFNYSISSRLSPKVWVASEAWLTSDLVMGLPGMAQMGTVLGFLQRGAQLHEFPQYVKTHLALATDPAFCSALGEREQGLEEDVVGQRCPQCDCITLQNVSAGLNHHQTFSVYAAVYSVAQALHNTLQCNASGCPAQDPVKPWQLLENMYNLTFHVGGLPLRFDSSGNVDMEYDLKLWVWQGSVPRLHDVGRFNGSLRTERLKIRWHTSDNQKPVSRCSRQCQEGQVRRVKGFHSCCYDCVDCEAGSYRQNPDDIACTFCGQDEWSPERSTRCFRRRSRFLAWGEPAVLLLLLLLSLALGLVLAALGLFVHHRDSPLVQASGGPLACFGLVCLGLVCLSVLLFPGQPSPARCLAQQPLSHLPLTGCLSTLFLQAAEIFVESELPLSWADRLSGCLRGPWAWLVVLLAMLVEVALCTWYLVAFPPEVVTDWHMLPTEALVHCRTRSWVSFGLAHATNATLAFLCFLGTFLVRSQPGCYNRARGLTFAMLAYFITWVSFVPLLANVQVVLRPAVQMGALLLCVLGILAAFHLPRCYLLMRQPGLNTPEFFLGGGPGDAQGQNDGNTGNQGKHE
Experimental: (§1) HEK293T/17 cells (ATCC CRL-11268) were seeded into clear bottom black 96-well plates coated with poly-D-lysine at a density of 32500 cells/well in 100 μL of DMEM containing 4.5 g/L glucose and supplemented with penicillin/streptomycin, 2 mM GlutaMAX and 10 % dialyzed fetal bovine serum. The plates were incubated for 24 h at 37 °C and 7.3 % CO2 in a humidified atmosphere. After incubation, using Fugene® 4 K (0.46 μL/well, Promega, Illkirch, France), the cells were transiently transfected with pcDNA3-hTAS1R1-WT (60 ng/well) or TAS1R1 mutants, pcDNA4-rTAS1R3 (60 ng/well), pcDNA3-Gα15i2 (10 ng/well), and pGP-CMV-GCaMP6s (Addgene #40753; 10 ng/well) as a genetically encoded calcium indicator. Twenty-four hours after transfection, the HEK293T/17 cells were rinsed with 100 μL of C1 buffer (130 mM NaCl, 5 mM KCl, 10 mM HEPES, 2 mM CaCl2, and 5 mM sodium pyruvate, pH 7.4). For each molecule tested, a semi-logarithmic concentration range was created consisting of seven increasing concentrations and a negative control (zero dose) made of buffer C1. […] After 20 s of basal fluorescence calcium measurement, the cells were stimulated via automatic injection of a range of compounds in eight wells, and the signal emission was recorded for an additional 70 s, via a FlexStation 3® fluorometric microplate reader (Molecular Devices, San Jose, CA, USA). […] The emitted fluorescence was measured at a wavelength of 510 nm after excitation at 488 nm. […] For each well, the decrease in the raw fluorescence as the relative fluorescence changed was calculated as ΔF/F0. Replicates were averaged for the wells subjected to the same stimuli, the background signal was subtracted, and the fluorescence changes in mock-transfected cells were subtracted. The half-maximal effective concentration (EC50) and maximal signal amplitude (max ∆F/F0) were calculated via non-linear regression of the sigmoidal function four-parameter logistic equation [f(x) = min + (max − min)/(1 + (x/EC50)^nH)] via SigmaPlot 15.0 software (Grafiti LLC, Palo Alto, CA, USA). […]

hTAS1R1 = target: T3, hTAS1R1 (Homo sapiens, UniProt Q7RTX1); assay: Calcium assay, subunit expressed alone; format: cell-based
T3 construct: UniProtKB number Q7RTX1–1); expressed in transfected cells; host or cells: HEK293 cells
T3 sequence (Q7RTX1 21-841): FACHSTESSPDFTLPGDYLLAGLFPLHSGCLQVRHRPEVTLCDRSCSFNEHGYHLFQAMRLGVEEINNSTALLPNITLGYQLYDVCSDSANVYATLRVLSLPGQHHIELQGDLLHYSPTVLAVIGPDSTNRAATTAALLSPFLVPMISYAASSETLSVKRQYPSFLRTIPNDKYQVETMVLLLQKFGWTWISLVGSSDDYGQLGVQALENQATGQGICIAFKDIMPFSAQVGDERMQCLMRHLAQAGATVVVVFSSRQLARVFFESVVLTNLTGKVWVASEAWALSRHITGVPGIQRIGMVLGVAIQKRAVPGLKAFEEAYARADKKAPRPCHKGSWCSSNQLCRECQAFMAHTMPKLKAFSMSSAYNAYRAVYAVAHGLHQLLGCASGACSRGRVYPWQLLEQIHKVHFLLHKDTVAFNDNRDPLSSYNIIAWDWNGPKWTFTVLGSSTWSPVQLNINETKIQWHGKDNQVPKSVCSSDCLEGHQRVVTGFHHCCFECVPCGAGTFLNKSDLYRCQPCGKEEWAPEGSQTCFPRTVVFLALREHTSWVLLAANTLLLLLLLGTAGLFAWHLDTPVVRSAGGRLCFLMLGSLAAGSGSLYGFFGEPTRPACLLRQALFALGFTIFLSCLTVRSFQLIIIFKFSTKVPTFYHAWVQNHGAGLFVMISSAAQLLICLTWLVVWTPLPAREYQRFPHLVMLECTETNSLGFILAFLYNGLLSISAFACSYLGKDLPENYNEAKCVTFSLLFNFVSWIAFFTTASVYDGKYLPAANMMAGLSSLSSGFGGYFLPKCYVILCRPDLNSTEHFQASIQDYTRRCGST
Experimental: as §1

EC50 (hTAS1R2/rTAS1R3(Mut1); sucralose alone, Fig. 4A) [µM] | EC50 (hTAS1R1; S807 alone, Fig. 5D) [µM] | SMILES | EC50 (hTAS1R2/hTAS1R3) [µM] | effect of 10 mM GSH on the response to sucralose (hTAS1R2/rTAS1R3(Mut1)) | effect of 10 mM GSH on the response to sucralose (hTAS1R2/hTAS1R3) | effect of 10 mM GSH on the response to S807 (hTAS1R1) | response of transfected cells (hTAS1R1; GSH alone, Fig. 5A)
283 ± 55 | – | OC[C@H]1O[C@H](O[C@]2(CCl)O[C@H](CCl)[C@@H](O)[C@@H]2O)[C@H](O)[C@@H](O)[C@H]1Cl [sucralose, reference compound] | 61 ± 2 | – | – | – | –
– | 0.89 ± 0.13 | CCCC(CCC)NC(=O)c1ccc2c(c1)OCO2 [S807, N-(heptan-4-yl)benzo[d][1,3]dioxole-5-carboxamide, reference compound] | – | – | – | – | –
– | – | N[C@@H](CCC(=O)N[C@@H](CS)C(=O)NCC(=O)O)C(=O)O [GSH, γ-L-glutamyl-L-cysteinyl-glycine] | 591 ± 344 | not increased | unaffected | not increased | did not respond
